Assay results taken from article PMC7206614, “Photoswitchable ORG25543 Congener Enables Optical Control of Glycine Transporter 2” (ACS Chemical Neuroscience, 2020).
pEC50, pIC50: −log10 of the molar value. Entries after “also recorded” stand apart in the source; their conditions may differ.

Tests used:
GlyT2 [1] = target: T1, GlyT2 (Homo sapiens, UniProt Q9Y345); test: Two-electrode voltage clamp of glycine transport currents in Xenopus laevis oocytes expressing GlyT2; assay type: cell-based; details: for reversibility: restoration of glycine transport currents after washout: inhibition at IC50 concentrations (1: 4 nM, 2: 50 nM), washed with ND96 for 30 min, glycine reapplied at 5 min intervals; for pIC50: oocytes expressing GlyT2, Figure 4A, range in brackets, read-out: IC50, reduction of glycine transport currents
T1 construct: expressed in transfected cells; host or cells: Xenopus laevis oocytes injected with in vitro transcribed RNA
T1 sequence (Q9Y345 1-797): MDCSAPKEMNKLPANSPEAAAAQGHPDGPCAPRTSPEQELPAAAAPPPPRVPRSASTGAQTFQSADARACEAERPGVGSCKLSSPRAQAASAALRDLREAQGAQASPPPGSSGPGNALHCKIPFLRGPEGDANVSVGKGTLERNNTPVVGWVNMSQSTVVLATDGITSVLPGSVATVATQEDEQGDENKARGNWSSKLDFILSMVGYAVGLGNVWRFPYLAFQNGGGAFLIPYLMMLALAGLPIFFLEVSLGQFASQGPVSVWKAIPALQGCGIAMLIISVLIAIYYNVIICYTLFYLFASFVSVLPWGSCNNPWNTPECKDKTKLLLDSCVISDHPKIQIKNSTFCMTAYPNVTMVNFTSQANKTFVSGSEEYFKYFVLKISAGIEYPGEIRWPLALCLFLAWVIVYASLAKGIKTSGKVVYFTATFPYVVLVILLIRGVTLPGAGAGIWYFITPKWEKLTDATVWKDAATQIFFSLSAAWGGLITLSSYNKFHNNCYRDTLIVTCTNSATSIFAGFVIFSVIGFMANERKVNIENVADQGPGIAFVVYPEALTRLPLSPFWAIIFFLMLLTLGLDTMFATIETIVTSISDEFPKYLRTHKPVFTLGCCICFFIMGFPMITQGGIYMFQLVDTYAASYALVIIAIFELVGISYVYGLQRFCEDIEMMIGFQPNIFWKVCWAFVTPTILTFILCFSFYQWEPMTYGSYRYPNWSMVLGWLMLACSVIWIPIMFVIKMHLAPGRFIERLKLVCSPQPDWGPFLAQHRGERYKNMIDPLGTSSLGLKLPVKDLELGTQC

GlyT2 [2] = test system: GlyT2; design: method as in PMID 23962079; details: cited from earlier work; for pIC50: two-electrode voltage clamp, Xenopus laevis oocytes expressing GlyT2, read-out: IC50 at GlyT2 (potency); for reversibility of GlyT2 inhibition: washout from oocytes expressing GlyT2
[3] = test system: rodent models of neuropathic pain; details: cited from earlier work
[4] = design: method as in PMID 23962079; details: cited from earlier work
rodents = details: cited from earlier work
mouse spinal cord slices = test system: mouse spinal cord slices; design: method as in PMID 15235081; details: exposure of mouse spinal cord slices for >10 min; cited from earlier work

Compound | reversibility: restoration of glycine transport currents after washout (GlyT2 [1]) | pIC50 (GlyT2 [1]) | pIC50 (GlyT2 [2]) | reversibility of GlyT2 inhibition (GlyT2 [2]) | analgesia in rodent models of neuropathic pain [3] | blood brain barrier permeability [4] | adverse side effects (rodents; rodent) | effect on neuropathic pain (hyperalgesia and allodynia) [3] | effect on inhibitory postsynaptic currents (mouse spinal cord slices) | toxicity on acute dosing in rodents (rodents) | pEC50 (GlyT2 [1])
COc1cc(C(=O)NCC2(N(C)C)CCCCC2)ccc1OCc1ccccc1 [compound 2] | restoration of glycine transport currents | 7.31 | 7.00 | readily reversible; also recorded: allows for restoration of glycine currents | produced analgesia | blood brain barrier permeable | no adverse side effects | – | – | – | –
COc1cc(C(=O)NCC2(N(C)C)CCCC2)cc(OC)c1OCc1ccccc1 [ORG25543] | no reversibility | 8.42 | 7.70 | irreversible; also recorded: cannot be restored | – | – | – | ameliorates both hallmarks of neuropathic pain | long-term reduction of inhibitory postsynaptic currents | excitotoxicity, hyperekplexia-like symptoms, and in severe cases death | –
NCC(=O)O [glycine] | – | – | – | – | – | – | – | – | – | – | 4.84
